This note sets out measurements from patent US11427605B2, “Crystalline forms of 5-chloro-N4-[-2-(dimethylphosphoryl) phenyl]-N2-{2-methoxy-4-[4-(4-methylpiperazin-1-yl) piperidin-1-yl] phenyl} pyrimidine-2,4-diamine” (ARIAD Pharmaceuticals, Inc., priority 2014, dated 2022).

The nature of one data set: Variable humidity XRPD. Conditions: 30° C. The class given is physicochemical. As for the experimental part:
The temperature variation rate was 10° C./min.
The relative humidity was increased from the starting amount, brought up to the maximum, then dried back to the minimum value. The data collection time was 41 min at each step, time starting after equilibration of the relative humidity.
The peaks shifts were reversible at RH of about 30%. A sample of Form A was then exposed to 80% RH for 15 h. The peaks shifts had occurred after 90 min, and the extent of the shifts remained constant throughout the exposure at 80% RH for 15 h. Upon return to 10% RH, the peaks shifted to their original position. To investigate the amount of water adsorbed, a new sample of Form A was exposed for 2 h at 80% and a TGMS of this sample was measured.
For Form B, the relative humidity was measured at 30° C. The RH % values measured were 10, 30, 50, 60, 65, 70, 75, and 80%. […] At 80% RH the conversion to Form C was completed. Upon desorption, Form C dehydrates to Form B, starting at about 30% RH. At 10% RH the conversion to Form B was completed.
For Form C, a hydrate, the relative humidity was measured at 30° C. The experiment was performed starting at the maximum RH and dehydrated, then rehydrated back up to the maximum value. The RH % values measured were 10, 15, 20, 25, 30, 35, 40, 60, and 80%. Upon desorption, Form C dehydrated to Form B, starting at about 25% RH. At 10% RH, the conversion to Form B was complete. Upon sorption, Form B converted to Form C, starting at about 60% RH. At 80% RH the conversion to Form C was complete. The results are consistent with the corresponding experiments of Form B.
For Form D, a hydrate, the relative humidity was measured at 30° C. The experiment was performed starting at the maximum RH and dehydrated, then rehydrated back up to the maximum value. The RH % values measured were 10, 15, 20, 25, 30, 35, 40, 60, and 80%. […] Form C dehydrated to Form B, starting at about 20% RH. At 10% RH, the conversion to Form B was complete. Upon sorption, Form B converted to Form C, starting at about 40% RH. At 80% RH, the conversion to Form C was complete.

The conditions of data set [1]: for Temperature at which (partial) conversion to Form A was observed / Temperature at which conversion to Form A was complete: sample started as the labelled form; for Temperature of dehydration to anhydrous Form B / Temperature of solid-solid transition to Form A: ambient humidity, increasing temperature; for Temperature of solid-solid transition to Form A: not reversible.
Protocol: High resolution X-ray powder diffraction patterns disclosed herein were collected on a D8 Advance system in the Brag-Brentano geometry equipped with LynxEye solid state detector. The radiation used for collecting the data was CuKα1 (λ=1.54056 Å) monochromatized by germanium crystal. The patterns were collected in the range of 4-41.5°2θ, with a step in the range of 0.016 °2θ without further processing. All patterns were taken at room temperature, approximately 295 K. The material was placed in a boron glass capillary of 0.3 mm diameter. For variable humidity and variable temperature experiments disclosed herein, an ANSYCO HT chamber was used. The material was placed on a fixed sample holder that was mounted inside the chamber. The humidity was applied locally and varied from 10% to 80% (dew point). The temperature variation rate was 10° C./min.
Data was collected for Forms A, B, C, and D almost immediately after reaching the target temperature (within approximately 10 min).
For Form A, the temperatures used in the experiment were 25, 40, 60, 100, 120, 140, 150, 160, 170, 180, 190, and 200° C. Data collection lasted 20 min per temperature and the stabilization time in between was 10 min.
For Form B, the temperatures used in the experiment were 25, 40, 60, 100, 120, 140, 150, 155, 160, 165, 170, 180, and 190° C. Data collection lasted 45 min per temperature and the stabilization time in between was 10 min.
For Form C, the temperatures used in the experiment were 25, 40, 60, 70, 80, 100, 120, 140, 150, 155, 160, 165, 170, 175, 180, 190, and 200° C. Data collection lasted 40 min per temperature and the stabilization time in between was 10 min.
For Form D, the temperatures used in the experiment were 25, 35, 45, 55, 65, 75, 85, 100, 120, 140, 150, 155, 160, 165, 170, 175, 180, 190, and 200° C. Data collection lasted 10 min for temperatures 25-85° C. with a stabilization time of 1 min, and 40 min for temperatures 100-25° C. with a stabilization time of 10 min.

Data set [2] can be described thus: Dehydration of Forms C and D (drying). The class given is physicochemical. As for the experimental part: In Table 25, a list of drying conditions for Form C are presented together with the final solid form.
In Table 26, a list of drying processes of Form D are presented. Form D under 5 mbar pressure and at 60° C. led to the formation of Form B after 24 h. In some instances, small quantities of Form C were visible on the XRPD patterns, even after 5 days of drying. This observation could be attributed to different particle morphology (fine particles vs. agglomerates/aggregates). […] In general, depending on the time and pressure, Forms B and C occur.

The mark [3] stands for this setting: sample started as the labelled form.

Turning to `COc1cc(N2CCC(N3CCN(C)CC3)CC2)ccc1Nc1ncc(Cl)c(Nc2ccccc2P(C)(C)=O)n1` [Form C, brigatinib], in “Variable humidity XRPD” (setting [3]), the “RH at which Form B starts to convert to hydrated Form C (sorption)” value was “about 60 % RH”, the “RH at which conversion to Form B was complete (desorption)” value was determined as 10 % RH and the “RH at which conversion to Form C was complete (sorption)” value came out at 80 % RH. In data set [1] (VT-XRPD), the “Temperatures at which the form is unstable” value was “higher than 25 °C”, the “Temperature at which (partial) conversion to Form A was observed” value was 120 °C and the “Temperature at which conversion to Form A was complete” value was 155 °C. Besides, in data set [1], the “Temperature of dehydration to anhydrous Form B” value is “about 40 °C” and the “Temperature of solid-solid transition to Form A” value was “about 150 °C”. For the same molecule, in data set [2] (30° C., 1.5 h, ambient pressure), the “final solid form after drying” value is on record as “appears to be stable”. Moreover, the “final solid form after drying” value in data set [2] (40° C., 1 h, ambient pressure) is “converted to Form B”.

In the case of `COc1cc(N2CCC(N3CCN(C)CC3)CC2)ccc1Nc1ncc(Cl)c(Nc2ccccc2P(C)(C)=O)n1` [Form D, brigatinib], in the data set “Variable humidity XRPD” (setting [3]), the “RH at which Form B starts to convert to hydrated Form C (sorption)” value is listed as “about 40 % RH”. Further, the “RH at which Form C starts to dehydrate to Form B (desorption)” value in the data set “Variable humidity XRPD” (setting [3]) is “about 20 % RH”. For the same molecule, in the data set “Variable humidity XRPD” (setting [3]), the “RH at which conversion to Form B was complete (desorption)” value was 10 % RH. Moreover, the “RH at which conversion to Form C was complete (sorption)” value in the data set “Variable humidity XRPD” (setting [3]) is 80 % RH. Besides, the “Solid form at first measurements” value in “Variable humidity XRPD” (80% RH, freshly prepared Form D) was “already partially transformed to Form C”. The “Temperature at which Form D had converted (partially) to hydrated Form C” value in data set [1] (VT-XRPD) was determined as 35 °C. Besides, the “Temperature at which Form D had converted to dehydrated Form B” value in data set [1] (VT-XRPD) is 45 °C. In data set [1] (VT-XRPD), the “Temperatures at which the form is unstable” value is “higher than 25 °C”. Moreover, the “Temperature at which (partial) conversion to Form A was observed” value in data set [1] (VT-XRPD) was 120 °C. In addition, in data set [1] (VT-XRPD), the “Temperature at which conversion to Form A was complete” value turned out to be 150 °C. The “Temperature of dehydration to anhydrous Form B” value in data set [1] was “about 40 °C”. Also, the “Temperature of solid-solid transition to Form A” value in data set [1] was “about 150 °C”. The “final solid form after drying” value in data set [2] (5 mbar, 60° C., 24 h) is “Form B”; in data set [2] (50 mbar, 60° C., 86 h) it was “mixture of Forms B+C”; in data set [2] (50 mbar, 60° C., 110 h) it was “Form B”; in data set [2] (15 h at 60° C., 5 mbar), “C + D”; in data set [2] (20 h (RT), 5 mbar) it was “B + C”; in data set [2] (20 h at 60° C., 5 mbar) it was “B + C”. The “final solid form after drying” value in data set [2] (28 h at 60° C., 5 mbar) was “B + C”; in data set [2] (65 h at 60° C., 50 mbar), “B + C”; in data set [2] (86 h at 60° C., 50 mbar), “B + C”; in data set [2] (5 days at 60° C., 5 mbar), “B + C”; in data set [2] (8 days, closed vial at RT, ambient pressure) it was “B + C”.
